According to patent US8530650B2, “2, 5-diamino-substituted pyrido [4, 3-D] pyrimidines as autotaxin inhibitors against cancer” (MERCK PATENT GmbH, priority 2008, dated 2013):
pIC50: −log10 of the molar value.

Target: T1, recombinant autotaxin (Homo sapiens, UniProt Q13822)
T1 construct: made in house; host or cells: Hi5 insect cells (baculovirus)
Experiment: Autotaxin assay (Amplex Red, LPC substrate)
Assay type: biochemical
Conditions: 75 μM LPC, Amplex Red fluorescence, ten 1:3 dilutions starting at 30 μM
In short: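 Baculovirus (Hi5)-expressed autotaxin (16 ng) was preincubated with compound 30 min at 22° C., then reacted with 75 μM final egg LPC for 90 min at 37° C.; choline released was coupled via choline oxidase/peroxidase to Amplex Red, fluorescence read kinetically (ex 485/em 612 nm). IC50 from 10-point 1:3 dilutions from 30 μM, duplicates, normalized to 500 μM C14 LPA as 0%.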

| pIC50 | SMILES |
| --- | --- |
| > 4.52 | COc1ccc(Nc2nccc3nc(NCc4ccccc4Cl)ncc23)cc1OC [Compound 12, N2-(2-Chloro-benzyl)-N5-(3,4-dimethoxy-phenyl)-pyrido[4,3-d]pyrimidine-2,5-diamine] |
| > 4.52 | COc1ccccc1CNc1ncc2c(Nc3ccccc3C)nccc2n1 [Compound 34, N2-(2-Methoxy-benzyl)-N5-o-tolyl-pyrido[4,3-d]pyrimidine-2,5-diamine] |
| > 4.52 | Fc1ccc(CNc2ncc3c(NCc4ccc5nonc5c4)nccc3n2)cc1 [Compound 29, N5-Benzo[1,2,5]oxadiazol-5-ylmethyl-N2-(4-fluoro-benzyl)-pyrido[4,3-d]pyrimidine-2,5-diamine] |
| > 5.30 | O=C(NCc1cccnc1)C1CCN(c2nccc3nc(NCc4ccccc4Cl)ncc23)CC1 [Compound 62, 1-[2-(2-Chloro-benzylamino)-pyrido[4,3-d]pyrimidin-5-yl]-piperidine-4-carboxylic acid (pyridin-3-ylmethyl)-amide] |
| > 5.30 | CC(=O)OCC(=O)N1CCN(c2nccc3nc(NCc4ccccc4Cl)ncc23)CC1 [Compound 126, Acetic acid 2-{4-[2-(2-chloro-benzylamino)-pyrido[4,3-d]pyrimidin-5-yl]-piperazin-1-yl}-2-oxo-ethyl ester] |
| > 4.52 | COc1ccccc1CNc1ncc2c(N3CCC(C(=O)NCc4ccco4)CC3)nccc2n1 [Compound 74, 1-[2-(2-Methoxy-benzylamino)-pyrido[4,3-d]pyrimidin-5-yl]-piperidine-4-carboxylic acid (furan-2-ylmethyl)-amide] |
| > 4.52 | Fc1ccc(CNc2ncc3c(Nc4ccc5c(c4)OCO5)nccc3n2)cc1 [Compound 26, N5-Benzo[1,3]dioxol-5-yl-N2-(4-fluoro-benzyl)-pyrido[4,3-d]pyrimidine-2,5-diamine] |
| > 4.52 | Cc1cc(F)ccc1Nc1nccc2nc(NCc3ccccc3)ncc12 [Compound 7, N2-Benzyl-N5-(4-fluoro-2-methyl-phenyl)-pyrido[4,3-d]pyrimidine-2,5-diamine] |
| > 5.00 | O=C(O)CN1CCN(c2nccc3nc(NCc4ccccc4Cl)ncc23)CC1 [Compound 145, {4-[2-(2-Chloro-benzylamino)-pyrido[4,3-d]pyrimidin-5-yl]-piperazin-1-yl}-acetic acid] |
| > 5.00 | CCCNC(=O)C1CCN(c2nccc3nc(NCc4ccccc4Cl)ncc23)CC1 [Compound 68, 1-[2-(2-Chloro-benzylamino)-pyrido[4,3-d]pyrimidin-5-yl]-piperidine-4-carboxylic acid propylamide] |
| > 4.52 | O=C(NCc1ccco1)C1CCN(c2nccc3nc(NCc4ccccc4)ncc23)CC1 [Compound 60, 1-(2-Benzylamino-pyrido[4,3-d]pyrimidin-5-yl)-piperidine-4-carboxylic acid (furan-2-ylmethyl)-amide] |
| > 4.52 | C=CCNC(=O)C1CCN(c2nccc3nc(NCc4ccccc4Cl)ncc23)CC1 [Compound 71, 1-[2-(2-Chloro-benzylamino)-pyrido[4,3-d]pyrimidin-5-yl]-piperidine-4-carboxylic acid allylamide] |
| > 4.52 | COc1ccccc1CNc1ncc2c(Nc3ccc(OC)c(OC)c3)nccc2n1 [Compound 38, N5-(3,4-Dimethoxy-phenyl)-N2-(2-methoxy-benzyl)-pyrido[4,3-d]pyrimidine-2,5-diamine] |
| > 4.52 | COc1ccccc1CNc1ncc2c(Nc3ccc(F)cc3C)nccc2n1 [Compound 41, N5-(4-Fluoro-2-methyl-phenyl)-N2-(2-methoxy-benzyl)-pyrido[4,3-d]pyrimidine-2,5-diamine] |
| > 5.30 | O=C(C1CCN(c2nccc3nc(NCc4ccc(Cl)cc4)ncc23)CC1)N1CCCC1 [Compound 80, {1-[2-(4-Chloro-benzylamino)-pyrido[4,3-d]pyrimidin-5-yl]-piperidin-4-yl}-pyrrolidin-1-yl-methanone] |
| > 5.30 | O=C(Cc1ccccn1)N1CCN(c2nccc3nc(NCc4ccccc4Cl)ncc23)CC1 [Compound 119, 1-{4-[2-(2-Chloro-benzylamino)-pyrido[4,3-d]pyrimidin-5-yl]-piperazin-1-yl}-2-pyridin-2-yl-ethanone] |
| > 5.00 | CCCN1CCN(C(=O)C2CCN(c3nccc4nc(NCc5ccccc5Cl)ncc34)CC2)CC1 [Compound 97, {1-[2-(2-Chloro-benzylamino)-pyrido[4,3-d]pyrimidin-5-yl]-piperidin-4-yl}-(4-propyl-piperazin-1-yl)-methanone] |
| > 4.52 | O=C(C1CCN(c2nccc3nc(NCc4ccccc4Cl)ncc23)CC1)N1CCC[C@H]1CN1CCCC1 [Compound 142, {1-[2-(2-Chloro-benzylamino)-pyrido[4,3-d]pyrimidin-5-yl]-piperidin-4-yl}-((S)-2-pyrrolidin-1-ylmethyl-pyrrolidin-1-yl)-methanone] |
| > 4.52 | CC(=O)CCC(=O)N1CCN(c2nccc3nc(NCc4ccccc4Cl)ncc23)CC1 [Compound 123, 1-{4-[2-(2-Chloro-benzylamino)-pyrido[4,3-d]pyrimidin-5-yl]-piperazin-1-yl}-pentane-1,4-dione] |
| > 5.30 | CC(C)NC(=O)C1CCN(c2nccc3nc(NCc4ccccc4Cl)ncc23)CC1 [Compound 67, 1-[2-(2-Chloro-benzylamino)-pyrido[4,3-d]pyrimidin-5-yl]-piperidine-4-carboxylic acid isopropylamide] |
| > 4.52 | Fc1ccc(Nc2nccc3nc(NCc4ccccc4)ncc23)c(F)c1 [Compound 4, N2-Benzyl-N5-(2,4-difluoro-phenyl)-pyrido[4,3-d]pyrimidine-2,5-diamine] |
| > 4.52 | CC(=O)N1CCN(c2nccc3nc(NCc4ccccc4Cl)ncc23)CC1 [Compound 115, 1-{4-[2-(2-Chloro-benzylamino)-pyrido[4,3-d]pyrimidin-5-yl]-piperazin-1-yl}-ethanone] |
| > 5.00 | CN(C)CCNC(=O)C1CCN(c2nccc3nc(NCc4ccccc4Cl)ncc23)CC1 [Compound 64, 1-[2-(2-Chloro-benzylamino)-pyrido[4,3-d]pyrimidin-5-yl]-piperidine-4-carboxylic acid (2-dimethylamino-ethyl)-amide] |
| > 4.52 | Fc1ccc(Nc2nccc3nc(NCc4ccc(Cl)cc4)ncc23)cc1F [Compound 48, N2-(4-Chloro-benzyl)-N5-(3,4-difluoro-phenyl)-pyrido[4,3-d]pyrimidine-2,5-diamine] |
| > 4.52 | COc1ccc(Nc2nccc3nc(NCc4ccc(Cl)cc4)ncc23)cc1OC [Compound 47, N2-(4-Chloro-benzyl)-N5-(3,4-dimethoxy-phenyl)-pyrido[4,3-d]pyrimidine-2,5-diamine] |
| > 5.30 | O=C(c1ccco1)N1CCN(c2nccc3nc(NCc4ccccc4Cl)ncc23)CC1 [Compound 113, {4-[2-(2-Chloro-benzylamino)-pyrido[4,3-d]pyrimidin-5-yl]-piperazin-1-yl}-furan-2-yl-methanone] |
| > 5.00 | O=C(C1CCCN(c2nccc3nc(NCc4ccc(Cl)cc4)ncc23)C1)N1CCN(c2ccccn2)CC1 (stereo not shown) [Compound 94, {1-[2-(4-Chloro-benzylamino)-pyrido[4,3-d]pyrimidin-5-yl]-piperidin-3-yl}-(4-pyridin-2-yl-piperazin-1-yl)-methanone] |
| > 4.52 | COc1ccccc1CNc1ncc2c(N3CCC(C(=O)Nc4cc(C)on4)CC3)nccc2n1 [Compound 77, 1-[2-(2-Methoxy-benzylamino)-pyrido[4,3-d]pyrimidin-5-yl]-piperidine-4-carboxylic acid (5-methyl-isoxazol-3-yl)-amide] |
